For series [1], the system named is murine αPIG-AT25 iPSCs, αPIG44-D3 ESCs and R1 ESCs. Nature of the series: Cell viability (PrestoBlue), results pooled over murine PSC lines. It counts as cell-based. The settings on record: 40 μM, 72 h. An excerpt: (§1) The transgenic murine induced pluripotent stem cell (miPSC) line αPIG-AT25 was generated from the miPSC line TiB7.4 as described in Fatima A et al., Stem Cell Res. 2016 Sep.; 17(2):266-272. The murine embryonic stem cell (ESC) line αPIG44-D3 was equally derived from D3 ESC line. Both transgenic mPSC lines express the IRES-linked genes encoding puromycin N-acetyl-aminotransferase (PAC) and enhanced green fluorescent protein (eGFP) which are under the control of cardiac alpha myosin heavy chain (α-MHC) promoter. They were cultured on mitomycin-inactivated mouse embryonic fibroblasts (MEF) in maintenance medium composed of Dulbecco's minimal essential medium (DMEM) with GlutaMAX (Life Technologies, Carlsbad, USA) supplemented with 15% fetal bovine serum (FBS, Sigma-Aldrich, St. Louis, USA), 1× non-essential amino acids (NEEA, Life Technologies), 50 μM β-mercaptoethanol (β-ME, Life Technologies) and 1000 U/ml of murine leukemia inhibitory factor (mLIF, ORF Genetics, Kopavogur, Iceland). Cell passaging was performed every 2-3 days by dissociating the cells with 0.05% trypsin-EDTA (Life Technologies) and seeding 1-2×10^4 cells/cm^2. The wild type mESC line R1 was cultured on cell culture plates coated with 0.1% gelatin (Sigma-Aldrich) and maintained like the transgenic mPSCs.
(§2) Serial dilutions of DMSO stock solutions of PluriSIn #1 (Sigma-Aldrich, catalog number SML0682) or one of small molecules SM1-SM10, were prepared from 20 mM stock solutions with cell culture medium. Murine PSCs were dissociated with 0.05% trypsin-EDTA, seeded on 0.1% gelatin-coated 96-well plates with a density of 5000 cells/well and cultured in maintenance medium supplemented with 1000 U/ml of mLIF. After 1 day, cells were incubated with 40 μM PluriSIn #1 and derivatives for 72 h or with 0.01-25 μM SMs for 48 h, respectively. For treatment of corresponding PSC-derived CMs with SMs, puromycin-selected miPSC-CMs from day 14 of differentiation were dissociated with 0.25% trypsin-EDTA as described above and plated on 96-well plates (5×10^4 cells/well) which were pre-coated with 5 μg/ml fibronectin (PromoCell, Heidelberg, Germany). After culturing miPSC-CMs with 8 μg/ml puromycin for 2 more days, they were incubated in differentiation medium supplemented with 0.1-100 μM of SMs for 48-72 h. Following small molecule treatment, cell viability was determined with PrestoBlue cell viability reagent (Life Technologies). To this end, cells were washed with PBS (with calcium and magnesium, Life Technologies) and incubated with PrestoBlue reagent diluted in cell culture medium for 40 min at 37° C.
(§3) Fluorescence intensities correlating with the number of viable cells in the wells were measured in black flat-bottom 96-well plates (Greiner Bio-One, Kremsmünster, Austria) with a GeniosPro microplate reader (Tecan, Männedorf, Schweiz).
To confirm the cytotoxicity of the compounds to PSCs, toxicity test were also run with murine ESC lines αPIG44-D3 and R1, and for comparison with αPIG-AT25 murine iPSC line. The cells were incubated for 48 h with compounds SM1, SM2, SM4, SM5, SM6 and SM8 in concentrations of 0.01 μM and 10 μM. Cell culture was performed as described above. Experiments were run in quadruplicate and negative and positive control cells were treated with 0.05% DMSO or 8 μg/ml puromycin, respectively. Cell viability was determined using PrestoBlue cell viability reagent.
Murine αPIG-AT25 iPSCs, αPIG44-D3 ESCs and R1 ESCs were incubated with 40 μM PluriSIn #1 (Sigma-Aldrich, catalog number SML0682) for 72 h. Cell culture was performed as described above for determination of the compounds. Experiments were run in quadruplicate and negative and positive control cells were treated with 0.08% DMSO or 8 μg/ml puromycin, respectively. The cell viability was determined using PrestoBlue cell viability reagent. […]

Series [2] concerns human pluripotent stem cells. The settings on record: exposure for 48 hours; cited from earlier work.
Series [3] deals with teratoma formation. The following applies: after transplanting 1 million cells into immunodeficient mice; cited from earlier work.
The subject of series [4] is murine αPIG-AT25 iPSCs. Nature of the series: Cell viability (PrestoBlue) of murine iPSCs after compound treatment. The settings on record: 48 h; for toxicity to miPSCs (in words): 0.1-25 μM; for concentration dependence of effect on miPSC viability: 0.1, 1, 10 and 25 μM. It counts as cell-based.
Text: as §1, §2, §3
IC50 values were determined by regression analysis of dose-response curves upon logarithmic transformation. Microscopic images of PSCs were taken with a Zeiss Axiovert 100 inverted microscope and GFP images of CMs were captured with a Zeiss Axiovert 200M fluorescence microscope (both Carl Zeiss, Oberkochen, Germany) and analyzed with Zeiss Axiovision 4.5 software (Carl Zeiss).
The cytotoxicity of the compounds according to formulas SM1 to SM10 to pluripotent stem cells (PSCs) was determined in a population of murine αPIG-AT25 iPSCs, which were incubated for 48 h with compounds SM1 to SM10 in concentrations of 0.1 μM, 1 μM, 10 μM and 25 μM. Cell culture was performed as described above. Experiments were run in quadruplicate and negative and positive control cells were treated with 0.125% DMSO or 8 μg/ml puromycin, respectively. The cell viability was determined using PrestoBlue cell viability reagent. […]

Series [5] has as its system human neural progenitor cells derived from the human iPSC line Royan-hiPSC4. The series can be described thus: Cell viability (PrestoBlue) of human iPSC-derived neural progenitor cells. It counts as cell-based. The settings on record: 1 μM, 72 h of treatment. The protocol:
To confirm the cytotoxicity of the compounds to PSCs, toxicity tests were also run with human neural progenitor cells (passage 20) derived from the human iPSC line Royan-hiPSC4 (RSCB0082). The cells were incubated for 24 h, 48 h and 72 h with compounds SM20, SM21, SM22 and SM23 in concentrations of 1 μM, 3 μM, 10 μM and 25 μM. Cell culture was performed as described above except that Koch medium was used. Experiments were run in quadruplicate and negative and positive control cells were treated with 0.001% DMSO or 0.1 μM, 1 μM, 10 μM and 25 μM of SM6, respectively. Cell viability was determined using PrestoBlue cell viability reagent.

In series [6] the test system is murine αPIG-AT25 iPSC-CM monolayers.

Structures are written as SMILES.

For `O=C(NNc1ccccc1)c1ccncc1` [PluriSIn #1], in series [1], the “reduction of cell viability, on average over the three murine PSC lines” value is on record as 51.32±10.86%. Besides, the “removal of human pluripotent stem cells from the culture” value in series [2] is “successfully removed human pluripotent stem cells from the culture”. The teratoma formation entry in series [3] is “prevented teratoma formation”.
As for `CN(Cc1cccc(-c2ccccc2)c1O)[C@@H]1CCCC[C@H]1N(C)Cc1cccc(-c2ccccc2)c1O` [SM3, (1R,2R)-N,N′-dimethyl-N,N′-di[(2-hydroxy-3-phenyl)-benzyl]-1,2-diaminocyclohexane], the “toxicity to miPSCs (in words)” value in series [4] is “did not”.
Regarding `CC(C)(C)c1cc(C(=O)N[C@@H]2CCCC[C@H]2NC(=O)c2cc(C(C)(C)C)cc(C(C)(C)C)c2O)c(O)c(C(C)(C)C)c1` [SM7, (1R,2R)-N,N′-di[(2-hydroxy-3,5-di-tert.- butyl)benzoyl]-1,2-diaminocyclohexane], the “toxicity to miPSCs (in words)” value in series [4] was “did not”.
`CN(Cc1cc(C(C)(C)C)cc(C(C)(C)C)c1O)[C@@H]1CCCC[C@H]1N(C)Cc1cc(C(C)(C)C)cc(C(C)(C)C)c1O` [SM9, (1R,2R)-N,N′-dimethyl-N,N′-di[(2-hydroxy-3,5-di-tert.- butyl)benzyl]-1,2-diaminocyclohexane]: in series [4], the “concentration dependence of effect on miPSC viability” value was “did not show a concentration dependent effect” and the “toxicity to miPSCs (in words)” value is given as “did not”.
For `CC(C)(C)c1cc(CN[C@@H]2CCCC[C@H]2NCc2cc(C(C)(C)C)cc(C(C)(C)C)c2O)c(O)c(C(C)(C)C)c1` [SM10, (1R,2R)-N,N′-di[(2-hydroxy-3,5-di-tert.- butyl)benzyl]-1,2-diaminocyclohexane], in series [4], the “concentration dependence of effect on miPSC viability” value was “did not show a concentration dependent effect” and the “toxicity to miPSCs (in words)” value is recorded as “did not”.
As to `Oc1c(CN[C@@H]2CCCC[C@H]2NCc2cccc(-c3c(F)c(F)c(F)c(F)c3F)c2O)cccc1-c1c(F)c(F)c(F)c(F)c1F` [SM20, (1R,2R)-N,N′-di[(2-hydroxy-3-penta-fluorophenyl)-benzyl]-1,2-diaminocyclohexane], in series [4], the “toxicity to miPSCs (in words)” value was “good toxicity”. Further, in series [5], the NPCs killed result is on record as “eliminated all cells”.
For `c1ccc2[nH]c(CN[C@@H]3CCCC[C@H]3NCc3cc4ccccc4[nH]3)cc2c1` [SM21, (1R,2R)-N,N′-di[(2-indolyl)methyl]-1,2-diaminocyclohexane], the “toxicity to miPSCs (in words)” value in series [4] is given as “good toxicity”.
`Oc1c(CN[C@@H]2CCCC[C@H]2NCc2cccc(-c3cccs3)c2O)cccc1-c1cccs1` [SM23, (1R,2R)-N,N′-di([2-hydroxy-3-(2-thienyl)]-benzyl)-1,2-diaminocyclohexane]: in series [4], the “toxicity to miPSCs (in words)” value was “good toxicity”. Further, in series [5], the NPCs killed result is “eliminated all cells”.
As for `N.N.[Cl][Pt][Cl]` [cisplatin], in series [6], the “apoptotic CMs (cleaved caspase-3 staining)” value is given as “presence of apoptotic CMs” and the “sarcomere structure (α-actinin staining)” value is “degradation of the sarcomere structure”.
